These results are taken from US20260242419A1, “A CYCLIC PEPTIDE FOR TRAPPING INTERLEUKIN-1 BETA” (Merck Sharp & Dohme LLC, priority 2023, published 2026).

Starred links: 1 amine or outer side, 2 acyl side, 3 side chain; linkers in the order of their positions; H or OH if unused. Non-standard residues stand in square brackets, D forms with d. Residues, ends and D or L forms follow the SMILES beside them. Phe(4-(5-CO2H-2-pyrimidyl)) = N[C@@H](Cc1ccc(-c2ncc(C(=O)O)cn2)cc1)C(=O)O; Phe(4-(4-Ac-piperazinyl)) = CC(=O)N1CCN(c2ccc(C[C@H](N)C(=O)O)cc2)CC1; Trp(4-Cl)(βS-Me) = C[C@@H](c1c[nH]c2cccc(Cl)c12)[C@H](N)C(=O)O; dPro(4R-(4-pyridylmethyl)) = O=C(O)[C@H]1C[C@@H](Cc2ccncc2)CN1; Trp(βS-Me,4-F) = C[C@@H](c1c[nH]c2cccc(F)c12)[C@H](N)C(=O)O; Bip(4'-COOH) = N[C@@H](Cc1ccc(-c2ccc(C(=O)O)cc2)cc1)C(=O)O; dPro(3S-(4-F-Bn)) = O=C(O)[C@@H]1NCC[C@@H]1Cc1ccc(F)cc1; Phe(2-Cl,4-COOH) = N[C@@H](Cc1ccc(C(=O)O)cc1Cl)C(=O)O; 1Nal(3S-Me) = C[C@@H](c1cccc2ccccc12)[C@H](N)C(=O)O; X13 = O=C(O)c1ccc(C[C@H](N[*:1])C(=O)[*:2])cc1Cl; Ala(pyrimidin-5-yl) = N[C@@H](Cc1cncnc1)C(=O)O; Phe(4-COOH) = N[C@@H](Cc1ccc(C(=O)O)cc1)C(=O)O; Pro(cis-4-F) = O=C(O)[C@@H]1C[C@H](F)CN1; Ala(4-THP) = N[C@@H](CC1CCOCC1)C(=O)O; AEF = NCCOc1ccc(C[C@H](N)C(=O)O)cc1; d(αMeD) = C[C@@](N)(CC(=O)O)C(=O)O; 4Pal = N[C@@H](Cc1ccncc1)C(=O)O; aThr = C[C@H](O)[C@H](N)C(=O)O; d(αMeS) = C[C@@](N)(CO)C(=O)O; Dab = NCC[C@H](N)C(=O)O; Aib = CC(C)(N)C(=O)O

As a reminder, the IC50 is the concentration at which inhibition is half-maximal.

T1 sequence (P01584 117-269): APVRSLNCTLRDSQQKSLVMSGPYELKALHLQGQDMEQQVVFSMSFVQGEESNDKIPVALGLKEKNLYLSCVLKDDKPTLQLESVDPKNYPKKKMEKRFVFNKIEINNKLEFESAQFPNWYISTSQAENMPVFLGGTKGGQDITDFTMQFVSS

This experiment concerns the target T1, IL-1β (Homo sapiens, UniProt P01584).
T1 construct: purchased BioLegend 579404
As to the kind of experiment: IL-6 assay in MRC5 cells: inhibition of IL-1β induced IL-6 secretion (AlphaLISA). The format is cell-based. To be noted: inhibition of IL-1β induced IL-6 secretion in MRC5 cells; read-out: MRC5 IC50. In short, it runs like this: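 Compound was pre-incubated 1 h at ambient temperature with recombinant human IL-1β at 2λ EC80 before adding human lung fibroblast MRC5 cells (3000/well) in EMEM with 0.025% BSA. After overnight culture at 37 °C, 5% CO2, secreted IL-6 in conditioned medium was measured by AlphaLISA; IC50 from 4-parameter logistic fits.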
Background: Alpha assays give light when donor and acceptor beads are brought close together.
Regarding `C[C@H](O)[C@@H]1NC(=O)[C@@](C)(CC(=O)O)NC(=O)[C@H](Cc2c[nH]c3ccccc23)NC(=O)[C@H](CO)NC(=O)C(C)(C)NC(=O)[C@H]([C@@H](C)c2c[nH]c3cccc(Cl)c23)NC(=O)[C@@H]2C[C@H](F)CN2C(=O)CNC(=O)[C@H](Cc2ccc(C(=O)O)cc2)NC(=O)[C@H](Cc2ccncc2)NC(=O)[C@H](Cc2ccc(-c3ccc(C(=O)O)cc3)cc2)NC(=O)[C@H]2C[C@@H](Cc3ccncc3)CN2C(=O)CNC(=O)[C@H](CCN)NC(=O)[C@H](CCC(N)=O)NC1=O` [Example 358] (cyclo([Bip(4'-COOH)][4Pal][Phe(4-COOH)]G[Pro(cis-4-F)][Trp(4-Cl)(βS-Me)][Aib]SW[d(αMeD)][aThr]Q[Dab]G[dPro(4R-(4-pyridylmethyl))])), the IC50 turned out to be 13 pM. Next, `C[C@H](O)[C@@H]1NC(=O)[C@@](C)(CC(=O)O)NC(=O)[C@H](Cc2c[nH]c3ccccc23)NC(=O)[C@H](CO)NC(=O)C(C)(C)NC(=O)[C@H]([C@@H](C)c2c[nH]c3cccc(F)c23)NC(=O)[C@@H]2C[C@H](F)CN2C(=O)CNC(=O)[C@H](Cc2ccc(C(=O)O)cc2)NC(=O)[C@H](Cc2ccncc2)NC(=O)[C@H](Cc2ccc(-c3ccc(C(=O)O)cc3)cc2)NC(=O)[C@H]2C[C@@H](Cc3ccncc3)CN2C(=O)CNC(=O)[C@H](CCN)NC(=O)[C@H](CCC(N)=O)NC1=O` [Example 359] (cyclo([Bip(4'-COOH)][4Pal][Phe(4-COOH)]G[Pro(cis-4-F)][Trp(βS-Me,4-F)][Aib]SW[d(αMeD)][aThr]Q[Dab]G[dPro(4R-(4-pyridylmethyl))])): 11 pM; `C[C@@H](c1cccc2ccccc12)[C@@H]1NC(=O)[C@@H]2C[C@H](F)CN2C(=O)CNC(=O)[C@H](Cc2ccc(C(=O)O)cc2Cl)NC(=O)[C@H](Cc2ccncc2)NC(=O)[C@H](Cc2ccc(-c3ncc(C(=O)O)cn3)cc2)NC(=O)[C@H]2C[C@@H](Cc3ccncc3)CN2C(=O)CNC(=O)[C@H](CCN)NC(=O)[C@H](CCC(N)=O)NC(=O)[C@H](CC2CCOCC2)NC(=O)[C@@](C)(CC(=O)O)NC(=O)[C@H](Cc2c[nH]c3ccccc23)NC(=O)[C@H](CO)NC(=O)C(C)(C)NC1=O` [Example 360] (cyclo([Phe(4-(5-CO2H-2-pyrimidyl))][4Pal][Phe(2-Cl,4-COOH)]G[Pro(cis-4-F)][1Nal(3S-Me)][Aib]SW[d(αMeD)][Ala(4-THP)]Q[Dab]G[dPro(4R-(4-pyridylmethyl))])): 19 pM. With `C[C@@H](c1c[nH]c2cccc(F)c12)[C@@H]1NC(=O)[C@@H]2C[C@H](F)CN2C(=O)CNC(=O)[C@H](Cc2ccc(C(=O)O)c(Cl)c2)NC(=O)[C@H](Cc2ccncc2)NC(=O)[C@H](Cc2ccc(-c3ncc(C(=O)O)cn3)cc2)NC(=O)[C@H]2C[C@@H](Cc3ccncc3)CN2C(=O)CNC(=O)[C@H](CCN)NC(=O)[C@H](CCC(N)=O)NC(=O)[C@H](CC2CCOCC2)NC(=O)[C@@](C)(CC(=O)O)NC(=O)[C@H](Cc2c[nH]c3ccccc23)NC(=O)[C@H](CO)NC(=O)C(C)(C)NC1=O` [Example 361] (cyclo([Phe(4-(5-CO2H-2-pyrimidyl))][4Pal][X13]G[Pro(cis-4-F)][Trp(βS-Me,4-F)][Aib]SW[d(αMeD)][Ala(4-THP)]Q[Dab]G[dPro(4R-(4-pyridylmethyl))])), the half-inhibitory concentration (IC50) turned out to be 22 pM. With `CC(=O)NCCOc1ccc(C[C@@H]2NC(=O)[C@H]3C[C@@H](Cc4ccncc4)CN3C(=O)CNC(=O)[C@H](CCN)NC(=O)[C@H](CCC(N)=O)NC(=O)[C@H](CC3CCOCC3)NC(=O)[C@@](C)(CC(=O)O)NC(=O)[C@H](Cc3c[nH]c4ccccc34)NC(=O)[C@H](CO)NC(=O)C(C)(C)NC(=O)[C@H]([C@@H](C)c3c[nH]c4cccc(Cl)c34)NC(=O)[C@@H]3C[C@H](F)CN3C(=O)CNC(=O)[C@H](Cc3ccc(C(=O)O)cc3)NC(=O)[C@H](Cc3ccncc3)NC2=O)cc1` [Example 362] (cyclo([AEF](Ac)[4Pal][Phe(4-COOH)]G[Pro(cis-4-F)][Trp(4-Cl)(βS-Me)][Aib]SW[d(αMeD)][Ala(4-THP)]Q[Dab]G[dPro(4R-(4-pyridylmethyl))])) the figure was 23 pM; with `CC(=O)NCCOc1ccc(C[C@@H]2NC(=O)[C@H]3C[C@@H](Cc4ccncc4)CN3C(=O)CNC(=O)[C@H](CCN)NC(=O)[C@H](CCC(N)=O)NC(=O)[C@H](CC3CCOCC3)NC(=O)[C@@](C)(CC(=O)O)NC(=O)[C@H](Cc3c[nH]c4ccccc34)NC(=O)[C@H](CO)NC(=O)C(C)(C)NC(=O)[C@H]([C@@H](C)c3cccc4ccccc34)NC(=O)[C@@H]3C[C@H](F)CN3C(=O)CNC(=O)[C@H](Cc3ccc(C(=O)O)cc3Cl)NC(=O)[C@H](Cc3ccncc3)NC2=O)cc1` [Example 363] (cyclo([AEF](Ac)[4Pal][Phe(2-Cl,4-COOH)]G[Pro(cis-4-F)][1Nal(3S-Me)][Aib]SW[d(αMeD)][Ala(4-THP)]Q[Dab]G[dPro(4R-(4-pyridylmethyl))])), 21 pM.

Consider `C[C@@H](c1c[nH]c2cccc(F)c12)[C@@H]1NC(=O)[C@@H]2C[C@H](F)CN2C(=O)CNC(=O)[C@H](Cc2ccc(C(=O)O)cc2)NC(=O)[C@H](Cc2ccncc2)NC(=O)[C@H](Cc2ccc(-c3ccc(C(=O)O)cc3)cc2)NC(=O)[C@H]2C[C@@H](Cc3ccncc3)CN2C(=O)CNC(=O)[C@H](CCN)NC(=O)[C@H](CCC(N)=O)NC(=O)[C@H](CC2CCOCC2)NC(=O)[C@@](C)(CO)NC(=O)[C@H](Cc2c[nH]c3ccccc23)NC(=O)[C@H](CO)NC(=O)C(C)(C)NC1=O` [Example 364] (cyclo([Bip(4'-COOH)][4Pal][Phe(4-COOH)]G[Pro(cis-4-F)][Trp(βS-Me,4-F)][Aib]SW[d(αMeS)][Ala(4-THP)]Q[Dab]G[dPro(4R-(4-pyridylmethyl))])), for which the 50% inhibitory concentration (IC50) worked out at 15 pM.

`CC(=O)N1CCN(c2ccc(C[C@@H]3NC(=O)[C@H]4C[C@@H](Cc5ccncc5)CN4C(=O)CNC(=O)[C@H](CCN)NC(=O)[C@H](CCC(N)=O)NC(=O)[C@H](Cc4cncnc4)NC(=O)C(C)(C)NC(=O)[C@H](Cc4c[nH]c5ccccc45)NC(=O)[C@H](CO)NC(=O)C(C)(C)NC(=O)[C@H]([C@@H](C)c4c[nH]c5cccc(F)c45)NC(=O)[C@@H]4C[C@H](F)CN4C(=O)CNC(=O)[C@H](Cc4ccc(C(=O)O)cc4Cl)NC(=O)[C@H](Cc4ccncc4)NC3=O)cc2)CC1` [Example 365] (cyclo([Phe(4-(4-Ac-piperazinyl))][4Pal][Phe(2-Cl,4-COOH)]G[Pro(cis-4-F)][Trp(βS-Me,4-F)][Aib]SW[Aib][Ala(pyrimidin-5-yl)]Q[Dab]G[dPro(4R-(4-pyridylmethyl))])): the IC50 turned out to be 23 pM. Next, `CC(=O)N1CCN(c2ccc(C[C@@H]3NC(=O)[C@H]4C[C@@H](Cc5ccncc5)CN4C(=O)CNC(=O)[C@H](CCN)NC(=O)[C@H](CCC(N)=O)NC(=O)[C@H](Cc4cncnc4)NC(=O)C(C)(C)NC(=O)[C@H](Cc4c[nH]c5ccccc45)NC(=O)[C@H](CO)NC(=O)C(C)(C)NC(=O)[C@H]([C@@H](C)c4c[nH]c5cccc(F)c45)NC(=O)[C@@H]4C[C@H](F)CN4C(=O)CNC(=O)[C@H](Cc4ccc(C(=O)O)cc4)NC(=O)[C@H](Cc4ccncc4)NC3=O)cc2)CC1` [Example 366] (cyclo([Phe(4-(4-Ac-piperazinyl))][4Pal][Phe(4-COOH)]G[Pro(cis-4-F)][Trp(βS-Me,4-F)][Aib]SW[Aib][Ala(pyrimidin-5-yl)]Q[Dab]G[dPro(4R-(4-pyridylmethyl))])): 21 pM. `CC(=O)NCCOc1ccc(C[C@@H]2NC(=O)[C@H]3C[C@@H](Cc4ccncc4)CN3C(=O)CNC(=O)[C@H](CCN)NC(=O)[C@H](CCC(N)=O)NC(=O)[C@H](Cc3cncnc3)NC(=O)C(C)(C)NC(=O)[C@H](Cc3c[nH]c4ccccc34)NC(=O)[C@H](CO)NC(=O)C(C)(C)NC(=O)[C@H]([C@@H](C)c3c[nH]c4cccc(F)c34)NC(=O)[C@@H]3C[C@H](F)CN3C(=O)CNC(=O)[C@H](Cc3ccc(C(=O)O)cc3Cl)NC(=O)[C@H](Cc3ccncc3)NC2=O)cc1` [Example 367] (cyclo([AEF](Ac)[4Pal][Phe(2-Cl,4-COOH)]G[Pro(cis-4-F)][Trp(βS-Me,4-F)][Aib]SW[Aib][Ala(pyrimidin-5-yl)]Q[Dab]G[dPro(4R-(4-pyridylmethyl))])): the half-inhibitory concentration (IC50) worked out at 17 pM. With `CC(=O)NCCOc1ccc(C[C@@H]2NC(=O)[C@H]3C[C@@H](Cc4ccncc4)CN3C(=O)CNC(=O)[C@H](CCN)NC(=O)[C@H](CCC(N)=O)NC(=O)[C@H](Cc3cncnc3)NC(=O)C(C)(C)NC(=O)[C@H](Cc3c[nH]c4ccccc34)NC(=O)[C@H](CO)NC(=O)C(C)(C)NC(=O)[C@H]([C@@H](C)c3c[nH]c4cccc(F)c34)NC(=O)[C@@H]3C[C@H](F)CN3C(=O)CNC(=O)[C@H](Cc3ccc(C(=O)O)cc3)NC(=O)[C@H](Cc3ccncc3)NC2=O)cc1` [Example 368] (cyclo([AEF](Ac)[4Pal][Phe(4-COOH)]G[Pro(cis-4-F)][Trp(βS-Me,4-F)][Aib]SW[Aib][Ala(pyrimidin-5-yl)]Q[Dab]G[dPro(4R-(4-pyridylmethyl))])) the figure was 22 pM. Next, `CC(=O)NCCOc1ccc(C[C@@H]2NC(=O)[C@H]3[C@@H](Cc4ccc(F)cc4)CCN3C(=O)CNC(=O)[C@H](CCN)NC(=O)[C@H](CCC(N)=O)NC(=O)[C@H](Cc3cncnc3)NC(=O)[C@@](C)(CC(=O)O)NC(=O)[C@H](Cc3c[nH]c4ccccc34)NC(=O)[C@H](CO)NC(=O)C(C)(C)NC(=O)[C@H]([C@@H](C)c3c[nH]c4cccc(F)c34)NC(=O)[C@@H]3C[C@H](F)CN3C(=O)CNC(=O)[C@H](Cc3ccc(C(=O)O)cc3)NC(=O)[C@H](Cc3ccncc3)NC2=O)cc1` [Example 369] (cyclo([AEF](Ac)[4Pal][Phe(4-COOH)]G[Pro(cis-4-F)][Trp(βS-Me,4-F)][Aib]SW[d(αMeD)][Ala(pyrimidin-5-yl)]Q[Dab]G[dPro(3S-(4-F-Bn))])): 21 pM.
